# Laboratory results published in patent US6620828B2, “Thiazole compounds and pharmaceutical compositions for inhibiting protein kinases and methods for their use” (Agouron Pharmaceuticals, Inc., priority 1999, dated 2003).
# Tests used:
# Type in all cases: biochemical
# CDK4/Cyclin D3 complex = biological target: T1, CDK4/Cyclin D3 complex (Homo sapiens, UniProt P11802); assay: CDK4/Cyclin D assay; details: 1.0 μM; combinatorial library compounds
# T1 construct: made in house; host or cells: insect cells co-infected with baculovirus vectors
# T1 sequence (P11802 whole entry): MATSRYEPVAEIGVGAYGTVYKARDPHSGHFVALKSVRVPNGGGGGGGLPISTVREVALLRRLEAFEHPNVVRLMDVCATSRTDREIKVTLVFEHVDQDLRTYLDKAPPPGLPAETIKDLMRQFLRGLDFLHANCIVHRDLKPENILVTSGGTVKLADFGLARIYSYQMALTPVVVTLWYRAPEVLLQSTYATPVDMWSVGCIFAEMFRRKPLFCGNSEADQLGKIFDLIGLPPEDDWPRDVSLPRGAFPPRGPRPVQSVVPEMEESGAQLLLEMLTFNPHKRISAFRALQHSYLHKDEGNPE
# T1 sequence (P30281 whole entry partner): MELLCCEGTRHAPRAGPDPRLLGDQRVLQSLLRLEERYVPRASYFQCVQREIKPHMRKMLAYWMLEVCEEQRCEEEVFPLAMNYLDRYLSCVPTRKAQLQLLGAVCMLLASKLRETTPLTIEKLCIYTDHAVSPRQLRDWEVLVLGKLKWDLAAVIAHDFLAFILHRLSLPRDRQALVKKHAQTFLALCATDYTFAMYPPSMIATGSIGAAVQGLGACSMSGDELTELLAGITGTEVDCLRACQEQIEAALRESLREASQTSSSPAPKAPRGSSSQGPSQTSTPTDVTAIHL
# Method: CDK4/Cyclin D Construct for Assay: A complex of human CDK4 and cyclin D3, or a complex of cyclin DI and a fusion protein of human CDK4 and glutathione-S-transferase (GST-CDK4), was purified using traditional biochemical chromatographic techniques from insect cells that had been co-infected with the corresponding baculovirus expression vectors.
# CDK2/Cyclin A and CDK4/Cyclin D Assays
# Cyclin-dependent kinase activity was measured by quantifying the enzyme-catalyzed, time-dependent incorporation of radioactive phosphate from [^32P]ATP into a recombinant fragment of the retinoblastoma protein. Unless noted otherwise, assays were performed in 96-well plates in a total volume of 50 μL, in the presence of 10 mM HEPES (N-[2-hydroxyethyl]piperazine-N′-[2-ethanesulfonic acid]) (pH 7.4), 10 mM MgCl2, 25 μM adenosine triphosphate (ATP), 1 mg/mL ovalbumin, 5 μg/mL leupeptin, 1 mM dithiothreitol, 10 mM β-glycerophosphate, 0.1 mM sodium vanadate, 1 mM sodium fluoride, 2.5 mM ethylene glycol-bis(β-aminoethyl ether)-N,N,N′N′-tetraacetic acid (EGTA), 2% (v/v) dimethylsulfoxide, and 0.03-0.2 μCi [^32P]ATP. The substrate (0.3-0.5 μg) was purified recombinant retinoblastoma protein fragment (Rb) (residues 386-928 of the native retinoblastoma protein; 62.3 kDa, containing the majority of the phosphorylation sites found in the native 106-kDa protein, as well as a tag of six histidine residues for ease of purification). Reactions were initiated with CDK2 (150 nM CDK2/Cyclin A complex) or CDK4 (50 nM CDK4/Cyclin D3 complex), incubated at 30° C., and terminated after 20 minutes by the addition of ethylenediaminetetraacetic acid EDTA) to 250 mM. The phosphorylated substrate was then captured on a nitrocellulose membrane using a 96-well filtration manifold, and unincorporated radioactivity was removed by repeated washing with 0.85% phosphoric acid. Radioactivity was quantified by exposing the dried nitrocellulose membranes to a phosphorimager. Apparent Ki values were measured by assaying enzyme activity in the presence of different compound concentrations and subtracting the background radioactivity measured in the absence of enzyme. The kinetic parameters (kcat, Km for ATP) were measured for each enzyme under the usual assay conditions by determining the dependence of initial rates on ATP concentration. The data were fit to an equation for competitive inhibition using Kaleidagraph (Synergy Software), or were fit to an equation for competitive tight-binding inhibition using the software KineTic (BioKin, Ltd.). Measured Ki values for known inhibitors against CDK4 and CDK2 agreed with published IC50 values. The specific activity of CDK4 was the same whether complexed to full-length cyclin D3 or the truncated Cyclin D3 construct; both complexes also yielded very similar Ki values for selected inhibitors.
# FL-CHK1 = biological target: T2, FL-CHK1 (Homo sapiens, UniProt O14757); assay: CHK1 assay; details: 20 μM; combinatorial library compounds
# T2 construct: C-terminally His-tagged full-length human CHK1 (FL-CHK1); 6xHis (C); made in house; host or cells: baculovirus/insect cells
# T2 sequence (O14757 1-476): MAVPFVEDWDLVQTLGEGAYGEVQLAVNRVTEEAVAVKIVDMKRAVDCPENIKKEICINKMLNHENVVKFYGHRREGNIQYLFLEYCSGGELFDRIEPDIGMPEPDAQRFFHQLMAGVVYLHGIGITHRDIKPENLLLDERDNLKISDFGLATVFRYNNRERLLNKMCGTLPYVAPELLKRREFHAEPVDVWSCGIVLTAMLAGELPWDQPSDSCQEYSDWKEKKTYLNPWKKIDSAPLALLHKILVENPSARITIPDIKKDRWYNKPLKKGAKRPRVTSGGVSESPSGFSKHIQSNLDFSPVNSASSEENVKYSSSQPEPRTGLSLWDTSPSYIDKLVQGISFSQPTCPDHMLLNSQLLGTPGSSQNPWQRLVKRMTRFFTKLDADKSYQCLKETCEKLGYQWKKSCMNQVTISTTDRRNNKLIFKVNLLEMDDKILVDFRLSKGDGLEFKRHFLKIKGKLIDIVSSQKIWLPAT
# In short: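 Full-length human CHK1 with C-terminal 6×His tag, made in baculovirus/insect cells, 10 nM, phosphorylating 0.125 mM Syntide-2 with 0.15 mM ATP in 50 mM Tris pH 7.5, 25 mM MgCl2, 400 mM NaCl. PK/LDH-coupled NADH oxidation read at 340 nm. Ki from initial rates over varied compound concentrations.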
# [1] = biological target: T3, phosphorylated VEGF-R2Δ50 (FLVK-P) (Homo sapiens, UniProt P35968, DEL940-989/E990V); assay: VEGF-R2 coupled spectrophotometric (FLVK-P) assay; details: read-out: VEGF % inhibition at 20 μM, 20 μM; combinatorial library compounds
# T3 construct: VEGF-R2Δ50 contains residues 806-939 and 990-1171; made in house; host or cells: baculovirus/insect cells
# T3 sequence (P35968 with tags, fused parts or gaps DEL940-989/E990V limits assumed): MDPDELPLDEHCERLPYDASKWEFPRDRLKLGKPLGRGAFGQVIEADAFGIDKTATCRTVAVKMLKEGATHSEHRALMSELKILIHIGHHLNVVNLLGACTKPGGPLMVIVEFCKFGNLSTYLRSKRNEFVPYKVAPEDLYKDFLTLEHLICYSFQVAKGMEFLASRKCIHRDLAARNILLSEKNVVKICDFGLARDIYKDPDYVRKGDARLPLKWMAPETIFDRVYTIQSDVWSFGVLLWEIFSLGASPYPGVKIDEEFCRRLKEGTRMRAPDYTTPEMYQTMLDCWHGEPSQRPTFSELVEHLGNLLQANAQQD
# In short: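 Baculovirus-expressed human VEGF-R2Δ50 (residues 806-939/990-1171, E990V) was autophosphorylated with 3 mM ATP, 40 mM MgCl2 for 2 h at 4° C. ADP formation was coupled via PK/LDH to NADH oxidation, read at 340 nm, with 5.1 mM poly(E4Y1), 1 mM ATP, 25 mM MgCl2, Hepes pH 7.5. Ki came from activity across compound concentrations.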
# CDK2/Cyclin A complex = CDK2/Cyclin A complex (Homo sapiens, UniProt P24941); assay: CDK2/Cyclin A assay; details: 1.0 μM; combinatorial library compounds
# In short: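 Radiometric assay: 150 nM CDK2/cyclin A (insect-cell CDK2, truncated cyclin A) phosphorylates His-tagged Rb fragment (residues 386-928) with 25 μM ATP plus [32P]ATP, pH 7.4 HEPES, 2% DMSO, 30 °C for 20 min. Filter-captured product counted by phosphorimager; apparent Ki from competitive or tight-binding inhibition fits.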
inhibition at 1 µM (CDK4/Cyclin D3 complex) [%],inhibition at 20 µM (FL-CHK1) [%],inhibition at 20 µM [1] [%],inhibition at 1 µM (CDK2/Cyclin A complex) [%],Compound
57.2,28.5,49,55.9,Nc1nc(Nc2ccc(S(N)(=O)=O)cc2)sc1-c1nc(-c2ccc(O)c(O)c2)cs1
-1.2,-3.9,3,12.5,COc1ccc(-c2csc(-c3sc(Nc4ccc(S(N)(=O)=O)cc4)nc3N)n2)c(OC)c1
41.2,-2.3,8,28.4,COc1ccc(OC)c(-c2csc(-c3sc(Nc4ccc(S(N)(=O)=O)cc4)nc3N)n2)c1
-13,1.1,3,29.8,CCOC(=O)c1cc(-c2csc(-c3sc(Nc4ccc(S(N)(=O)=O)cc4)nc3N)n2)on1
16.3,3.7,13,13.3,N#Cc1ccc(-c2nc(-c3sc(Nc4ccc(S(N)(=O)=O)cc4)nc3N)cs2)cc1
-3.9,2.9,-2,-4.5,Cc1onc(-c2ccccc2)c1-c1csc(-c2sc(Nc3ccc(S(N)(=O)=O)cc3)nc2N)n1
-27,4.4,8,20.7,Nc1nc(Nc2ccc(S(N)(=O)=O)cc2)sc1-c1nc(-c2ccc(OC(=O)c3ccccc3)cc2)cs1
39.7,13.6,13,14.6,Nc1nc(Nc2ccc(S(N)(=O)=O)cc2)sc1-c1nc(-c2ccc[nH]2)cs1
-4.2,15.2,23,5.9,COc1cccc(-c2csc(-c3sc(Nc4ccc(S(N)(=O)=O)cc4)nc3N)n2)c1
53.3,11.4,9,52.6,CCOC(=O)c1ccccc1-c1csc(-c2sc(Nc3ccc(S(N)(=O)=O)cc3)nc2N)n1
-4.8,-7.3,33,25.4,CC(=O)Oc1ccccc1-c1csc(-c2sc(Nc3ccc(S(N)(=O)=O)cc3)nc2N)n1
58,21.7,9,53.9,Nc1nc(Nc2ccc(S(N)(=O)=O)cc2)sc1-c1nc(-c2c(Cl)cc(C(F)(F)F)cc2Cl)cs1
14,3.3,-4,23.2,Cn1cc(-c2csc(-c3sc(Nc4ccc(S(N)(=O)=O)cc4)nc3N)n2)cc1C(=O)C(Cl)(Cl)Cl
-0.3,16.4,15,17.6,Nc1nc(Nc2ccc(S(N)(=O)=O)cc2)sc1-c1nc(-c2cccc(Br)c2)cs1

# Further lines, the compound ahead of its results:
Compound,inhibition at 1 µM (CDK4/Cyclin D3 complex) [%],inhibition at 20 µM (FL-CHK1) [%],inhibition at 20 µM [1] [%],inhibition at 1 µM (CDK2/Cyclin A complex) [%]
Nc1nc(Nc2ccc(S(N)(=O)=O)cc2)sc1-c1nc(-c2cc(Br)c(Cl)s2)cs1,56.4,7.9,6,60.5
Nc1nc(Nc2ccc(S(N)(=O)=O)cc2)sc1-c1nc(-c2ccc(Cl)c([N+](=O)[O-])c2)cs1,-28.2,13.1,-2,17.6
Nc1nc(Nc2ccc(S(N)(=O)=O)cc2)sc1-c1nc(-c2ccc(-c3ccc(Cl)cc3Cl)o2)cs1,25,3.3,-2,21.4
Nc1nc(Nc2ccc(S(N)(=O)=O)cc2)sc1-c1nc(-c2ccc(Cl)cc2)cs1,10.9,4.4,27,18.5
Nc1nc(Nc2ccc(S(N)(=O)=O)cc2)sc1-c1nc(-c2ccccc2[N+](=O)[O-])cs1,57.8,25.6,47,55.4
Nc1nc(Nc2ccc(S(N)(=O)=O)cc2)sc1-c1nc(-c2ccc([N+](=O)[O-])cc2)cs1,-16.3,11,3,27.7
Cc1cc(-c2csc(-c3sc(Nc4ccc(S(N)(=O)=O)cc4)nc3N)n2)ccc1Cl,-28,15.9,2,8.3
Nc1nc(Nc2ccc(S(N)(=O)=O)cc2)sc1-c1nc(-c2ccc3c(c2)OCCO3)cs1,31.8,20.1,29,21.4
Cc1c(C)c(C)c(-c2csc(-c3sc(Nc4ccc(S(N)(=O)=O)cc4)nc3N)n2)c(C)c1C,64.1,29,33,77.2
Nc1nc(Nc2ccc(S(N)(=O)=O)cc2)sc1-c1nc(-c2cc(-c3ccccc3)no2)cs1,-0.5,-1.2,-1,12
Nc1nc(Nc2ccc(S(N)(=O)=O)cc2)sc1-c1nc(-c2cc(-c3ccc(Cl)c(Cl)c3)no2)cs1,-31.3,0.5,-5,16.1
CCCCCc1ccc(-c2csc(-c3sc(Nc4ccc(S(N)(=O)=O)cc4)nc3N)n2)cc1,-7.2,10.8,–,-9.9
CCN(CC)c1ccc(-c2csc(-c3sc(Nc4ccc(S(N)(=O)=O)cc4)nc3N)n2)cc1,29.3,6.1,10,34.8
Nc1nc(Nc2ccc(S(N)(=O)=O)cc2)sc1-c1nc(-c2csc3ccccc23)cs1,44.1,0.4,10,48.9
Nc1nc(Nc2ccc(S(N)(=O)=O)cc2)sc1-c1nc(-c2cc3cc(Cl)ccc3o2)cs1,-15,13.6,-4,16.6
